Measurements taken from PMC11881662 (Journal of Enzyme Inhibition and Medicinal Chemistry, 2025).
Converted amounts (≈) assume the structure as drawn. “And” between values parts separate entries of the source, which are not always exact repeats. Equal values may be shown once.

Key:
MCF-7 cells [1] = assay: Wound healing assay; format: cell-based, human; conditions: MCF-7, at IC50 concentrations
poly(dA-dT)2 = assay: Ethidium bromide assay, DNA-binding effects on poly; conditions: EtBr-DNA complex, compound 10 μM, 25 °C 30 min
[2] = tested on: normal human skin fibroblasts (HSF); assay: Normal cytotoxicity evaluation, MTT; format: cell-based; conditions: Skin fibroblast, 24 h, read-out: Normal HSF IC50
[3] = tested on: MCF-7 breast cancer cell line; assay: In vitro anti-proliferative MTT assay; format: cell-based, human; conditions: for IC50: Homo sapiens, MCF7, 24 h, read-out: MCF-7 IC50; for Selectivity index (SI): IC50 against normal cells (HSF) divided by IC50 against cancer cells (MCF-7)
poly(dG-dC)2 = assay: Ethidium bromide assay, DNA-binding effects on poly; conditions: EtBr-DNA complex, compound 10 μM, 25 °C 30 min
plasmid pBR322 [4] = assay: Ethidium bromide assay, DNA-binding effects on plasmid pBR322; conditions: EtBr-DNA complex, compound 10 μM, 25 °C 30 min; no drug = 100% fluorescence
recombinant human DHFR = target: T1, recombinant human DHFR (Homo sapiens, UniProt P00374); assay: Dihydrofolate reductase; format: biochemical
T1 sequence (P00374 1-187): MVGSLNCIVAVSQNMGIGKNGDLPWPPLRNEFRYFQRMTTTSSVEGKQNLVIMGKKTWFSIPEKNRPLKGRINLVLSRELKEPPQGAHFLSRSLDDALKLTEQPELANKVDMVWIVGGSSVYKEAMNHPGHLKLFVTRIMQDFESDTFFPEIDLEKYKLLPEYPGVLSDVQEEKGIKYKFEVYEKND

calf thymus DNA = assay: Ethidium bromide assay, DNA-binding effects on calf thymus DNA; conditions: EtBr-DNA complex, compound 10 μM, 25 °C 30 min
MCF-7 cells [5] = assay: Apoptosis induction, Annexin V-FITC/PI flow cytometry; format: cell-based, human; conditions: MCF-7, at IC50, 24 h
T4 coliphage DNA = assay: Ethidium bromide assay, DNA-binding effects on T4 coliphage DNA; conditions: EtBr-DNA complex, compound 10 μM, 25 °C 30 min
plasmid pBR322 [6] = conditions: NT under the same conditions; cited from earlier work

| SMILES | % Wound closure after 24 h treatment (MCF-7 cells [1]) | Decrease in fluorescence (%) Poly (dA-dT)2 (poly(dA-dT)2) | IC50 [2] | IC50 [3] | Selectivity index (SI) [3] | Decrease in fluorescence (%) Poly (dG-dC)2 (poly(dG-dC)2) | Decrease in fluorescence (%) pBr322 (plasmid pBR322 [4]) | IC50 (recombinant human DHFR) | Decrease in fluorescence (%) Calf Thymus DNA (calf thymus DNA) | Percentage of necrosis (MCF-7 cells [5]) | Percentage of total apoptosis (MCF-7 cells [5]) | Decrease in fluorescence (%) T4 DNA (T4 coliphage DNA) | Decrease in fluorescence (%) pBr322 (degree of EtBr displacement) (plasmid pBR322 [6]) |
| --- | --- | --- | --- | --- | --- | --- | --- | --- | --- | --- | --- | --- | --- |
| O=C(O)C(/C=C/c1ccc(Cl)cc1)=N\Nc1nc(-c2ccccc2)cs1 [Compound 5, (2Z,3E)-4-(4-Chlorophenyl)-2-(2–(4-phenylthiazol-2-yl)hydrazinylidene)but-3-enoic acid] | 45.19% | 56.91% | 32.6 µg/mL (≈ 84.8 µM) | 2.72 µg/mL (≈ 7.09 µM) | 11.97 | 67.28% | 63.44% | 80 ± 1 nM | 63.15% | 3.09% | 29.63% | 28.05% |  |
| O=C(O)C(/C=C/c1ccc(Cl)cc1)=N\Nc1nc(-c2ccc([N+](=O)[O-])cc2)cs1 [Compound 11, (2Z,3E)-4-(4-Chlorophenyl)-2-(2-(4-(4-nitrophenyl)thiazol-2-yl)hydrazinylidene)but-3-enoic acid] | 52.72% | 53.39% | 84.4 µg/mL (≈ 197 µM) | 12.5 µg/mL (≈ 29.2 µM) | 6.74 | 56.57% | 56.21% | 60 ± 30 nM | 46.31% | 4.81% | 23.99% | 28.89% |  |
| Cn1cc(NC(=O)c2cc(NC(=O)CN=C(N)N)cn2C)cc1C(=O)NCCC(=N)N [NT, netropsin, reference compound] |  | 62.02% |  |  |  | 85% and 85.13% |  |  | 90.24% |  |  | 70.06% | 74% |
